Assay [1] has as its system HCT116. In words: AC50 cell viability (CellTiter-Glo); higher = less potent. Conditions: 48 h. (In general: In ATP-based viability assays light output follows the ATP content of the culture.)
For assay [2], the system named is HCT116. The assay is described as follows: efficacy (fitted maximal change in viability relative to DMSO control); higher = less cytotoxic (negative = loss of viability). Conditions: 48 h.
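Throughout, for AC50 cell viability (CellTiter-Glo): HCT116 colorectal carcinoma cells screened at five concentrations per compound, luminescent viability scaled between DMSO wells and empty wells on each plate, curves fitted per compound.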
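Throughout, for efficacy (fitted maximal change in viability relative to DMSO control): Luminescence-based viability readout, five doses per compound, normalized against on-plate DMSO and empty-well controls, followed by dose-response curve fitting for every drug.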

Regarding `CC(C)CC(=O)Nc1n[nH]c2c1CN(C(=O)C1CCN(C)CC1)C2(C)C`, in the assay with HCT116 [1], the AC50 cell viability was determined as 0.186 µM. In the assay on HCT116 [2], the efficacy was -68.7%.
Turning to `CC(C)Oc1ccc(C(=O)N[C@H](CNC(=O)CN(C)C)Cc2ccc(-c3cn4cccc([C@H](C)O)c4n3)cc2)cc1Cl`, in the assay on HCT116 [1], the AC50 cell viability came to 4.17 µM. Also, the efficacy in the assay on HCT116 [2] was -127%.
In the case of `Cc1ccc(NC(=O)c2ccc(CN3CCNCC3)cc2)cc1Nc1nccc(-c2cccnc2)n1`, the AC50 cell viability in the assay with HCT116 [1] was 18.6 µM. Further, the efficacy in the assay on HCT116 [2] is -93.9%.
For `CC1=C2N=C([NH]C2=CC(=C1)N3CCOCC3)\C4=C(NC[C@@H](O)C5=CC=CC(=C5)Cl)\C=C/NC4=O`, in that order: 6.61 µM and -93.9%.
`Cc1c(NC(=O)OCC2COCCN2)cn2ncnc(Nc3ccc4c(cnn4Cc4cccc(F)c4)c3)c12` (configuration not stated): in the assay with HCT116 [1], the AC50 cell viability came to 26.3 µM. Moreover, the efficacy with HCT116 [2] is -91.3%.
For `Cc1ccc([S+](=O)([O-])Nc2cc(Cl)ccc2C(=O)Nc2nc(-c3ccccc3)cs2)cc1`, in that order: 2.63 µM and -82.5%.
The matching figures for `CCc1ccc2nc(Nc3cc(Cc4ccccc4)nc(N[C@H]4CC[C@H](O)CC4)n3)sc2c1`: 18.6 µM and -65.1%.
For `CCCC(CCC)C(=O)NC/1=N/C(=O)N(/C=C1)[C@@H]2O[C@H](CO)[C@@H](O)C2(F)F`, in that order: 2.63 µM and -48.1%.
Turning to `CCN(CC)CCCCNc1nc2cc(Cl)c(Cl)cc2nc1-c1ccc(-c2cccs2)s1`, the AC50 cell viability with HCT116 [1] was 23.5 µM. In addition, in the assay with HCT116 [2], the efficacy was -97.7%.
Regarding `CCN(CC)CCCCNc1ncc2c(n1)N(C)C(=O)N(c1c(Cl)c(OC)cc(OC)c1Cl)C2`, the AC50 cell viability in the assay with HCT116 [1] is 11.8 µM. For the same compound, in the assay on HCT116 [2], the efficacy was -80.5%.
Turning to `CCNC(=O)C[C@H]1/N=C(/C2=CC=C(Cl)C=C2)C3=CC(=CC=C3[N]4C(=NN=C14)C)OC`, the AC50 cell viability in the assay with HCT116 [1] amounted to 14.8 µM. Further, the efficacy with HCT116 [2] was -37.7%.
For `CCOC1=CC(=CC=C1C/2=N/[C@@](C)(C3=CC=C(Cl)C=C3)[C@](C)(N2C(=O)N4CCN(CC4)CC(=O)N5CCOCC5)C6=CC=C(Cl)C=C6)C(C)(C)C`, in that order: 9.17 µM and -114%.
In turn, `CN(C)c1ccc(-c2nc3c(N4CCN(CC(=O)Nc5nccs5)CC4)c(Cl)cnc3[nH]2)cc1` registered an AC50 cell viability in the assay on HCT116 [1] of 0.723 µM. Also, in the assay on HCT116 [2], the efficacy is -34.1%.
`CN1CCN(CC1)C2=CC=C(NC3=NC=C4\C=C(\C#N)C(=O)N(C5CCCC5)C4=N3)C=C2` had an AC50 cell viability with HCT116 [1] of 1.32 µM. Besides, the efficacy in the assay on HCT116 [2] was -77.1%.
The compound `Cc1cc(Nc2cc(N3CCN(C)CC3)nc(/C=C/c3ccccc3)n2)n[nH]1` came in with an AC50 cell viability in the assay with HCT116 [1] of 5.9 µM. For the same compound, the efficacy with HCT116 [2] is -99.9%.
For `CNC(=O)c1c(F)cccc1Nc1nc(Nc2cc3c(cc2OC)CCN3C(=O)CN(C)C)nc2[nH]ccc12`, in that order: 5.25 µM and -131%.
On to `CNC(=O)C1=CC=C(C)C(=C1)N2C(=C/C(=C(/Br)C2=O)OCC3=C(F)C=C(F)C=C3)\C`, for which the AC50 cell viability in the assay on HCT116 [1] amounted to 16.6 µM. Further, the efficacy in the assay on HCT116 [2] is -41.4%.
For `CNC(=O)Nc1ccc(-c2nc(N3CC4CCC(C3)O4)c3cnn(C4CCC5(CC4)OCCO5)c3n2)cc1`, in that order: 1.18 µM and -96.3%.
The matching figures for `CNCc1ccc(C)c(NC(=O)c2ccc(Nc3nc(-c4ccccc4)c4ccccc4n3)cc2)c1`: 18.6 µM and -94.8%.
In turn, `CNCCn1c(=O)c2cc(OC)c(OC)cc2c2cnc3cc4c(cc3c21)OCO4` gave an AC50 cell viability in the assay with HCT116 [1] of 0.0303 µM. For the same compound, the efficacy in the assay with HCT116 [2] is -80.9%.
With `COc1cc(-c2cc(-c3ccc(N4CCNCC4)cc3)cnc2C)cc(OC)c1OC`, the AC50 cell viability in the assay with HCT116 [1] is 9.34 µM. Besides, the efficacy in the assay on HCT116 [2] was -57.2%.
For the compound `COc1cc2ncnc(-n3nc(-c4ccccn4)nc3N)c2cc1OC`, the AC50 cell viability with HCT116 [1] was found to be 4.68 µM. Moreover, the efficacy in the assay with HCT116 [2] was -47.9%.
For `COc1cc(Oc2ccnc3cc(OC)c(OC)cc23)ccc1NC(=O)NC(C)c1nccs1` (configuration not stated), in that order: 20.9 µM and -63.5%.
For `COc1cc2ncnc(Oc3cccc(NC(=O)Nc4cc(C(C)(C)C(F)(F)F)on4)c3)c2cc1OC`, in that order: 3.72 µM and -66.5%.
For `COc1ccc(-c2cc(C(O)C3CCCCN3)c3ccccc3n2)cc1` (configuration not stated), in that order: 4.68 µM and -90.9%.
For `COc1ccc(Cl)c(Nc2ncnc3cc(OCC4CCN(C)CC4)c(OC)cc23)c1`, the AC50 cell viability in the assay on HCT116 [1] is 23.5 µM. Moreover, the efficacy in the assay with HCT116 [2] is -93.6%.
The matching figures for `C[C@@H](Oc1cc(-n2cnc3ccc(CN4CCN(C)CC4)cc32)sc1C(N)=O)c1ccccc1C(F)(F)F`: 0.0468 µM and -57.6%.
For `Cc1cc(OCCCc2c3n(c4c(-c5c(C)nn(C)c5C)c(Cl)ccc24)[C@H](C)CN(c2cn(C)c4ccc(C(=O)O)cc24)C3=O)cc(C)c1Cl`, in that order: 16.6 µM and -93.6%.
The compound `C[C@H](NC(=O)c1sccc1OCc1ccc(Cl)cc1)c1ccccc1` gave an AC50 cell viability in the assay on HCT116 [1] of 16.6 µM. Also, the efficacy in the assay on HCT116 [2] was -50.9%.
For `Cc1ccc(-c2ccc3ncc4c(c3n2)n(C2CCN(C(=O)[C@H](C)O)CC2)c(=O)n4C)cn1`, in that order: 0.166 µM and -86.9%.
Compound `Cn1ncc(Cl)c1-c1cc(C(=O)NC(CN)Cc2ccc(F)c(F)c2)oc1Cl` (configuration not stated) showed an AC50 cell viability with HCT116 [1] of 13.2 µM. In the assay on HCT116 [2], the efficacy was -117%.
In turn, `C[S+]([O-])c1ccc(-c2nc(-c3ccc(F)cc3)c(-c3ccncc3)[nH]2)cc1` (configuration not stated) returned an AC50 cell viability in the assay with HCT116 [1] of 18.6 µM. Besides, the efficacy in the assay with HCT116 [2] is -83.2%.
The matching figures for `O=C(/C=C/c1ccc(Cl)cc1)N1CCC2(CC1)CN(Cc1ccc(Cl)c(Cl)c1)C(=O)O2`: 23.5 µM and -85.1%.
For `ClC1=C[NH]N=C1C\2NC(=N\C3=C2C(=O)CCC3)/NC4=NC5=CC=CC=C5O4` (configuration not stated), in that order: 18.6 µM and -63.3%.
The compound `O=C(Nc1ccccc1Br)N[C@@H]1CCN(c2ccc(C(F)(F)F)cn2)C1` registered an AC50 cell viability with HCT116 [1] of 16.6 µM. Besides, in the assay with HCT116 [2], the efficacy was -39.8%.
Consider `O=C(NOCC1CC1)c1ccc(F)c(F)c1Nc1ccc(I)cc1Cl`, for which the AC50 cell viability with HCT116 [1] was 4.68 µM. Further, the efficacy with HCT116 [2] was -126%.
The matching figures for `N#Cc1ccc(-c2c(-c3nnc[nH]3)sc(N3CCOCC3)c2C#N)c(F)c1`: 1.86 µM and -83.5%.
Take `Fc1ccc(-c2csc3ncnc(NCc4ccc5c(c4)OCO5)c23)cc1`: the AC50 cell viability in the assay with HCT116 [1] worked out at 8.33 µM. Also, the efficacy with HCT116 [2] is -57.3%.
For `N#Cc1cccc(-c2c[nH]c3ncnc(N4CCOCC4)c23)c1`, in that order: 16.6 µM and -40.9%.
`NC1(Cc2ccc(Cl)cc2)CCN(c2ncnc3[nH]ccc23)CC1` had an AC50 cell viability with HCT116 [1] of 13.2 µM. Moreover, the efficacy with HCT116 [2] was -95.2%.
Consider `NC1=C(Cl)C(=CC=N1)OC2=C(F)C=C(NC(=O)\C3=C\N\C=C(C3=O)\C4=CC=C(F)C=C4)C=C2`, for which the AC50 cell viability with HCT116 [1] worked out at 16.6 µM. Further, in the assay with HCT116 [2], the efficacy was -78.4%.
Compound `Nc1ccc(C(=O)Nc2cccc(-c3nc(N4CCOCC4)c4oc5ncccc5c4n3)c2)cn1` showed an AC50 cell viability in the assay on HCT116 [1] of 5.9 µM. Also, the efficacy in the assay on HCT116 [2] is -88.1%.
In the assay with HCT116 [1], `Nc1nc(Nc2ccc([S+](N)(=O)[O-])cc2)nn1C(=O)c1c(F)cccc1F` yielded an AC50 cell viability of 1.66 µM. Also, in the assay on HCT116 [2], the efficacy was -65.7%.
The matching figures for `Nc1n[nH]c2nnc(-c3c(-c4ccccc4)nn4ccccc34)cc12`: 18.6 µM and -41.3%.
The matching figures for `NC\1=N\C(=O)N(\C=C1F)[C@H]2C[C@H](O)[C@@H](CO)O2`: 0.105 µM and -64%.
The matching figures for `O=C(C1CC1)N1CC[C@@H](Cn2c(-c3ccc(-c4ccc5occc5c4)cc3)nc3cnccc32)C1`: 23.5 µM and -66.1%.
In the assay on HCT116 [1], `O=C(NCCCNc1nc(Nc2cccc(CN3CCOCC3)c2)ncc1C1CC1)C1CCC1` displayed an AC50 cell viability of 16.6 µM. Further, the efficacy in the assay on HCT116 [2] is -96.5%.
The matching figures for `O=C(NCC(=O)N1CC[C@H](NC2CCC(O)(c3ccc(-c4ncccn4)cn3)CC2)C1)c1cccc(C(F)(F)F)c1` (some centres not stated): 5.9 µM and -47%.
With `O=C(NOCC(O)CO)c1ccc(F)c(F)c1Nc1ccc(I)cc1F` (configuration not stated), the AC50 cell viability in the assay with HCT116 [1] is 0.166 µM. Besides, the efficacy in the assay on HCT116 [2] was -68.6%.
With `OCCn1cc(-c2ccc3c(c2)CC/C3=N\O)c(-c2ccncc2)n1`, the AC50 cell viability with HCT116 [1] is 4.68 µM. For the same compound, in the assay with HCT116 [2], the efficacy was -55.7%.
Consider `N#Cc1ccc2c(c1)CN([S+](=O)([O-])c1cccs1)[C@H](Cc1ccccc1)CN2Cc1cnc[nH]1`, for which the AC50 cell viability in the assay with HCT116 [1] is 0.417 µM. In the assay on HCT116 [2], the efficacy was -73.3%.
On to `Cc1ccc(C(=O)Nc2ccc(CN3CCN(C)CC3)c(C(F)(F)F)c2)cc1C#Cc1cnc2cccnn12` [Ponatinib], for which the AC50 cell viability in the assay with HCT116 [1] is 1.48 µM.
For the compound `COc1ccc(CCN(C)CCCC(C#N)(c2ccc(OC)c(OC)c2)C(C)C)cc1OC` (configuration not stated) [Verapamil], the AC50 cell viability in the assay with HCT116 [1] was 18.6 µM.
Take `CC1=C(/C=C/C(C)=C/C=C/C(C)=C/C=C/C=C(C)/C=C/C=C(C)/C=C/C2=C(C)CCCC2(C)C)C(C)(C)CCC1` [beta-Carotene]: the efficacy with HCT116 [2] is -21.3%.
Same read-out and setting: as for `CCCCn1c(=O)n(Cc2ccccc2F)c(=O)c2nc(Cc3ccc(NC(C)=O)cc3)[nH]c21` [cPEPCK Inhibitor], the figure is -8.36%; as for `CC/1=C2/N(C(=O)C(=C1)/NC3=CC(=NC=N3)N)C4(CCCCC4)NC2=O` [eFT508], -7.54%.

These data come from the supplement of paper PMC10290057.
